Test results: article PMC11655904, “[^89Zr]Zr-DFO-TOC: a novel radiopharmaceutical for PET imaging of somatostatin receptor positive neuroendocrine tumors” (EJNMMI Radiopharmacy and Chemistry, 2024)
Values joined by “and” are separate entries in the source; they are usually repeats but may differ in a detail not shown here. Equal entries are not always repeated. “Also recorded” adds a separate entry of the source.

Columns and labels:
[1] = test system: AR42J cells; assay: Internalization assay, AR42J cells; type: cell-based; details: 0.025 nmol DFO-TOC, 1 µCi per well; time points 30 min, 1 h, 3 h; trypsin and sodium citrate pH 2 strip
Description: (§1) Cells were seeded in Fisherbrand™ 12-well surface-treated culture plates with 1 million cells per well for each cell line and were allowed to grow overnight under cell culture conditions. For internalization experiments, each well received 0.025 nmol DFO-TOC radiolabeled with 1 µCi (0.037 MBq) of [^89Zr]Zr-DFO-TOC in 1 mL of cell media. Plates were incubated with [^89Zr]Zr-DFO-TOC for 30 min, 1 h, and 3 h. Cells were detached from the wells using 800 µL of 0.05% Gibco trypsin incubated for 5 min. Cells were sedimented using a benchtop centrifuge at 7000 g for 5 min. The supernatant was removed, and the cells were resuspended in 200 µL of 0.1 M Supelco sodium citrate (pH 2) for 5 min. The cells were sedimented using a benchtop microcentrifuge and the supernatant was added to the trypsin. The supernatant and cell pellet activities were determined using the Wizard2 Gamma Counter.

[2] = test system: AR42J cells (SSTR2 high expression); assay: Receptor binding and competitive receptor blocking assay, AR42J cells; type: cell-based
Description: (§2) Cells were seeded in Fisherbrand™ 12-well surface-treated culture plates with 1 million cells per well for each cell line and were allowed to adhere overnight under normal cell culture conditions. Samples were not purified to remove excess DFO-TOC. For receptor binding and blocking experiments, each well was incubated with [^89Zr]Zr-DFO-TOC (0.025 nmol DFO-TOC per well, 1 µCi (0.037 MBq) of [^89Zr]) in 1mL of cell media. For receptor blocking experiments,
(§3) 2.5 nmol unlabeled DFO-TOC was added to each well, in addition to [^89Zr]Zr-DFO-TOC. Culture plates were incubated with the tracer for 1 h, 3 h, 1 day, 3 days, 5 days, and 6 days. At each timepoint, the media was removed and the cells were washed with PBS twice. Cells were detached using 1 mL of 1 M NaOH and collected in a microcentrifuge tube for analysis using a Revvity (Waltham, MA) Wizard2 Gamma Counter. BCA assays were used to estimate protein concentrations per the manufacturer’s instructions.
(§4) All data was analyzed using GraphPad Prism (San Diego, CA) and is presented as a mean ± standard deviation. Statistical analysis was completed using a paired nonparametric t-test (α = 0.05) to compare cell total binding and cell blocking groups.

[3] = Benchtop stability of the radiotracer (radio-HPLC and iTLC); type: physicochemical; details: mean ± standard deviation
Description: To neutralize [^89Zr]Zr-oxalate, an equal volume of [^89Zr]Zr-oxalate and 0.5 M Thermo Scientific HEPES (concentration 99%) buffer were mixed. The pH of the sample was then adjusted using 5.0 M NaOH. For all radiolabeling experiments, 100 µCi (3.7 MBq) of ^89Zr (pH ~ 7.4) was incubated with varying molar quantities of DFO-TOC and 1.0 M HEPES buffer in a final incubation volume of 200 µL. The reaction was incubated on a thermomixer at 37 °C and 800 rpm for 30 min. The molar activity was determined by radiolabeling 1 nmol of DFO-TOC with varying activities of ^89Zr up to 1500 µCi (55.5 MBq) and 1.0 M HEPES buffer in a final incubation volume of 200 µL. Samples were incubated using the same conditions as the radiochemical yield assays. Samples were analyzed using an Agilent (Santa Clara, CA) 1260 Infinity II high-performance liquid chromatography (HPLC) instrument with a LabLogic (Chantilly, VA) Flow-RAM radio-HPLC detector. Radiochemical yields were determined via radio-HPLC using a reversed-phase C18 selectivity column (5 μm particle size, 150 mm length, and 4.6 mm diameter).
The samples were assessed for benchtop stability and stability in mouse serum only if a radiochemical yield of 95% or greater was achieved. Benchtop stability was assessed at time points of 30 min, 1 h, 1 day, 2 days, 3 days, 6 days, and 9 days using an Eckert & Ziegler (Valencia, CA) AR-2000 instant Thin Layer Chromatography (iTLC) and radio-HPLC. Diethylenetriamine pentaacetic acid was used as the mobile phase for iTLC, while radio-HPLC used the gradient described previously. Stability in mouse serum was assessed by adding 100 µL of a 200 [drawing 3] […] No further sample purification was conducted before injection on the radio-HPLC. All samples remained on a thermomixer at 37 °C and 800 rpm, and aliquots were removed for analysis by using iTLC and radio-HPLC, after 1 h, 1 day, 2 days, 3 days, 5 days, 6 days, and 9 days.

[4] = test system: PC-3 cells (SSTR2 moderate expression); assay: Receptor binding and competitive receptor blocking assay, PC-3 cells; type: cell-based; details: 2.5 nmol unlabeled DFO-TOC (100x excess) as blocking agent; at 120 h; p = 0.0001; paired nonparametric t-test
Description: as §2, §3, §4

[5] = 100 µL of tracer sample (200 µCi, 7.4 MBq) in 400 µL prefiltered mouse serum, 37 °C, 800 rpm, mean ± standard deviation
Description: To neutralize [^89Zr]Zr-oxalate, an equal volume of [^89Zr]Zr-oxalate and 0.5 M Thermo Scientific HEPES (concentration 99%) buffer were mixed. The pH of the sample was then adjusted using 5.0 M NaOH. For all radiolabeling experiments, 100 µCi (3.7 MBq) of ^89Zr (pH ~ 7.4) was incubated with varying molar quantities of DFO-TOC and 1.0 M HEPES buffer in a final incubation volume of 200 µL. The reaction was incubated on a thermomixer at 37 °C and 800 rpm for 30 min. The molar activity was determined by radiolabeling 1 nmol of DFO-TOC with varying activities of ^89Zr up to 1500 µCi (55.5 MBq) and 1.0 M HEPES buffer in a final incubation volume of 200 µL. […] Samples were analyzed using an Agilent (Santa Clara, CA) 1260 Infinity II high-performance liquid chromatography (HPLC) instrument with a LabLogic (Chantilly, VA) Flow-RAM radio-HPLC detector. Radiochemical yields were determined via radio-HPLC using a reversed-phase C18 selectivity column (5 μm particle size, 150 mm length, and 4.6 mm diameter).
The samples were assessed for benchtop stability and stability in mouse serum only if a radiochemical yield of 95% or greater was achieved. Benchtop stability was assessed at time points of 30 min, 1 h, 1 day, 2 days, 3 days, 6 days, and 9 days using an Eckert & Ziegler (Valencia, CA) AR-2000 instant Thin Layer Chromatography (iTLC) and radio-HPLC. […]

[6] = test system: PANC-1 cells (SSTR2 minimal expression); assay: Receptor binding and competitive receptor blocking assay, PANC-1 cells; type: cell-based
Description: as §2, §3, §4

[7] = test system: PC-3 cells; assay: Internalization assay, PC-3 cells; type: cell-based
Description: as §1

[8] = test system: PANC-1 cells; assay: Internalization assay, PANC-1 cells; type: cell-based; details: 0.025 nmol DFO-TOC, 1 µCi per well; time points 30 min, 1 h, 3 h; trypsin and sodium citrate pH 2 strip
Description: as §1

[9] = ref Brereton et al. [2015]; Lamberts et al. [1996]; cited from earlier work
Source text: (§5) Significant progress has been made in recent years towards understanding the underlying biology and molecular pathways involved with NETs, particularly the role of somatostatin receptors (SSTRs) and their downstream pathways. SSTRs (SSTR1, 2 A/2B, 3, 4, and 5) belong to a family of G protein-coupled receptors with seven transmembrane-spanning proteins that bind the cyclic peptide somatostatin (SST) (Theodoropoulou and Stalla [2013]). SST regulates cell growth and inhibits hormone secretion in the endocrine and exocrine systems (Brereton et al. [2015]; Ampofo et al. [2020]).

[10] = test system: SSTR2; parameters: method as in Buscail et al. [1994]; details: ref Buscail et al. [1994]; cited from earlier work
Source text: as §5, with “[2020]). Prior research has ...” for “[2020]).”

[11] = test system: SSTR2, AR42J; details: ref Vaidyanathan et al. [2003], Hofland et al. [1999]; cited from earlier work

CC(=O)N(O)CCCCCNC(=O)CCC(=O)N(O)CCCCCNC(=O)CCC(=O)N(O)CCCCCNC(=S)Nc1ccc(NC(=S)NCCCCCC(=O)N[C@H](Cc2ccccc2)C(=O)N[C@H]2CSSC[C@@H](C(=O)N[C@H](CO)[C@@H](C)O)NC(=O)[C@H]([C@@H](C)O)NC(=O)[C@H](CCCCN)NC(=O)[C@@H](Cc3c[nH]c4ccccc34)NC(=O)[C@H](Cc3ccc(O)cc3)NC2=O)cc1 [[^89Zr]Zr-DFO-TOC, metal not drawn]
time of maximum cell internalization, AR42J [1]: 3 h | tracer uptake (total binding) in AR42J cells compared with the other cell lines ([2]; 0.025 nmol DFO-TOC, 1 µCi per well, 1 million cells per well, 1 h to 6 days, gamma counter, P < 0.0001 vs PC-3 and p = 0.0001 vs PANC-1 after 1 h): highest uptake; also recorded: higher uptake than PC-3 and PANC-1 cell lines at all time points | time at which AR42J cell binding reached saturation ([2]; 0.025 nmol DFO-TOC, 1 µCi per well, time points 1 h to 6 days): 5 days | blocking versus total binding groups, AR42J ([2]; 2.5 nmol unlabeled DFO-TOC (100x excess) as blocking agent, after 1 h, p < 0.0001, paired nonparametric t-test): statistically significant difference | radiochemical yield on the benchtop after 9 days, iTLC ([3]; iTLC, diethylenetriamine pentaacetic acid mobile phase): 97 ± 4% | radiochemical yield on the benchtop after 9 days, radio-HPLC ([3]; radio-HPLC, C18, 0.1% TFA water/acetonitrile gradient): 89.6% and 90 ± 4% | blocking versus total binding groups, PC-3 [4]: statistically significant difference | radiochemical yield in mouse serum after 9 days, radio-HPLC [5]: 89 ± 2% | tracer uptake in PANC-1 cells ([6]; 0.025 nmol DFO-TOC, 1 µCi per well, attributed to low SSTR2 expression): Low | blocking versus total binding groups, PANC-1 ([6]; 2.5 nmol unlabeled DFO-TOC (100x excess) as blocking agent, all time points, paired nonparametric t-test): No statistically significant difference | time of maximum cell internalization, PC-3 ([7]; 0.025 nmol DFO-TOC, 1 µCi per well, time points 30 min, 1 h, 3 h, trypsin and sodium citrate pH 2 strip): 3 h | percentage of tracer internalized in PC-3 compared with AR42J and PANC-1 ([7]; time points up to 3 h): higher percentage of the tracer was internalized | time of maximum cell internalization, PANC-1 [8]: 3 h

somatostatin [SST]
bioactive half-life [9]: < 1 min

octreotide
receptor affinity for SSTR2 [10]: high receptor affinity

[Tyr3, Thr8]-octreotide
earliest time at which SSTR2 internalization was observed [11]: 2.5 min
